Source: patent US20210059961A1, “CANNABINOID DOSING REGIME FOR ACNE” (priority 2018, published 2021)

What was measured:
[1] = Skin permeation of CBD, Franz-type diffusion cell; format: in vitro ADME
Protocol: Dermatomed skin from a single donor was mounted in a Franz-type diffusion cell (0.55 cm^2 receptor fluid exposure surface area) and dosed with 5 ul of 2-[3-methyl-6-(1-methylethenyl)-2-cyclohexen-1-yl]-5-pentyl-1,3-benzenediol (CBD), BTX 1503 5% Solution, formulated in an mixture of a volatile solvent (hexylmethyldisiloxane/polymethylsiloxane—93% w/w), and residual solvent (arlamol E—2% w/w) at a concentration of 5.0% (w/w; 35.5 mg/ml). Following dosing, receptor phase samples were collected at 4, 10, 24 and 48 hours; after which the study was terminated.
The residual formulation was removed by tape stripping and the epidermis and dermis separated by blunt dissection. The levels of CBD in the epidermis, dermis, and receptor fluid samples were then analyzed using a bioanalytical method with LC-MS/MS detection.

[2] = tested on: cardiac inflammation; settings: injected into rats; cited from earlier work
[3] = Open-label study in patients with acne vulgaris: study drug plasma levels; format: in vivo, human
From the text: Eligible subjects were enrolled within 14 days after the Screening Visit. Assessments for safety (CBC, chemistry, urinalysis, and vital signs) were obtained at the Baseline Visit (Day 1). If the Screening and Baseline Visits were not conducted on the same day, a UPT for WOCBP, lesion counts on the face, an Investigator's Global Assessment (IGA) for facial acne and a UDS were repeated. Baseline photographs of the face and a blood sample for Baseline study drug plasma levels were obtained. […] Cutaneous tolerability assessments were conducted at one hour after the first application. […]
Safety was the primary outcome measure. The safety outcomes were measured through assessment of: • AEs monitored from time of consent through the end of study. • Cutaneous tolerability (erythema, scaling, dryness, burning/stinging, and irritant/allergic contact dermatitis) collected at Baseline, Day 14, Day 28, and Day 35 and graded using the following scale: 0, None; 1, Slight; 2, Moderate; 3, Severe. • Vital signs (temperature, blood pressure, and pulse) obtained at Baseline, Day 14, Day 28 and Day 35. • Complete blood count (CBC), chemistry, and urinalysis at Baseline and at Day 28. Blood levels of study drug will be measured at Baseline and prior to dosing (trough level) on Day 14, Day 28, and Day 35. […]

[4] = Healthy volunteer study of single and multiple-dose BTX 1503 5% Solution (BTX.2017.001): pharmacokinetics, safety; format: in vivo, human; settings: for mean CBD trough level Day 15: multiple dose phase
Protocol: The pharmacokinetics (PK) of single and multiple-dose administration of BTX 1503 5% Solution were evaluated in a healthy volunteer study. In this study, BTX 1503 5% Solution was applied as a single dose either QD or BID (12 hrs apart) on Day 1 followed by a 6-day washout period, then either QD or BID for 14 days (Day 8 to Day 21). Five subjects were enrolled in each cohort and doses were escalated for each sequential cohort enrolled with the following doses. • Cohort 1: 37.5 mg CBD/day or 0.066 mg/cm^2/day^a applied as 1 mL of BTX 1503 5% (w/w) QD • Cohort 2: 75 mg CBD/day or 0.133 mg/cm^2/day applied as 1 mL BTX 1503 5% (w/w) BID • Cohort 3: 112.5 mg CBD/day or 0.199 mg/cm^2/day applied as 3 mL of BTX 1503 5% (w/w) QD • Cohort 4: 225 mg CBD/day or 0.398 mg/cm^2/day applied as 3 mL of BTX 1503 5% (w/w) BID Area of application assumed to be 565 cm^2 (i.e., on the face), which is reported by the European Union Scientific Committee on Consumer Safety (SCCS) to be half of the surface area for a female head (SCCS Notes of Guidance for the Testing of Cosmetic Substances and Their Safety Evaluation, 8th edition, 2012; Table 2).
Blood samples were taken for PK assessments on Day 1 (Baseline) at pre-dose (15 mins before dosing), 30, 60 and 90 mins and 2, 2.5, 3, 4, 6, 8 and 12 hrs, and 24 hrs after the first single dose. For participants that received BID dosing, samples were also taken at 30, 60 and 90 mins and 2, 2.5, 3, 4, 6, and 8 hrs after the second dose on Day 1.
During the multiple dose (14-day) phase, trough levels were obtained before the morning application on Day 15. On Day 21, blood samples were taken for PK assessments at pre-dose (15 mins before dosing), 30, 60 and 90 mins and 2, 2.5, 3, 4, 6, 8 and 12 hrs, 24 hrs and 48 hrs after the morning dose. For participants that received BID dosing, samples were also be taken at 30, 60 and 90 mins and 2, 2.5, 3, 4, 6, and 8 hrs after the second dose on Day 21. A sample was obtained on Day 23, 48 hrs after the last morning dose. […]

[5] = tested on: airway obstruction; settings: intravenous, sensitized guinea-pigs; cited from earlier work
[6] = tested on: immortalized human sebocytes; settings: cited from earlier work
[7] = target: human vanilloid receptor type 1 (VR1) (Homo sapiens, UniProt Q8NER1); settings: in vitro; cited from earlier work
[8] = tested on: anandamide; settings: in vitro; cited from earlier work
[9] = 5 ul of 5.0% w/w solution, 48-hour exposure

Sequence of human vanilloid receptor type 1 (VR1) (Q8NER1 whole entry): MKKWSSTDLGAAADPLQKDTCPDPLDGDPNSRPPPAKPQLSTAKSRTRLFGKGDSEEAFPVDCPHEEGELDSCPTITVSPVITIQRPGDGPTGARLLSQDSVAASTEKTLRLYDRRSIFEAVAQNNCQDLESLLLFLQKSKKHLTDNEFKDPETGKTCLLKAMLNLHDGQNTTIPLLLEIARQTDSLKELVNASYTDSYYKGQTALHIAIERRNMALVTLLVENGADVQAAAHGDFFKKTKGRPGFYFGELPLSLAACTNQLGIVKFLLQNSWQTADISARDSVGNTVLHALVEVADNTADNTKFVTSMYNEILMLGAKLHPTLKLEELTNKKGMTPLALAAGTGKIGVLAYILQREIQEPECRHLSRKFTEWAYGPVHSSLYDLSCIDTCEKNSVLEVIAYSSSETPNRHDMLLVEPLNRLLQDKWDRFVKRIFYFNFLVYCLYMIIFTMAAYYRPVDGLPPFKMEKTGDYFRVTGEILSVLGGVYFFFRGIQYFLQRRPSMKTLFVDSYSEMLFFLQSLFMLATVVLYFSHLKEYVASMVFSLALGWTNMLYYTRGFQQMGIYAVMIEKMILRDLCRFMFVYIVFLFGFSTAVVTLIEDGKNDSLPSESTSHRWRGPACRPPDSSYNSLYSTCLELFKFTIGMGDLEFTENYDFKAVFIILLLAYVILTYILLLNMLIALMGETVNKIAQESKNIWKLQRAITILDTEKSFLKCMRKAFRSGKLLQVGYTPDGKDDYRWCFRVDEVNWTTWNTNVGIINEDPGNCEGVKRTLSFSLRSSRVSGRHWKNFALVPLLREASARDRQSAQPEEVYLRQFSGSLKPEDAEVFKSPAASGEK

C=C(C)C1CCC(C)=CC1c1c(O)cc(CCCCC)cc1O (stereo not drawn) [CBD, 2-[3-methyl-6-(1-methylethenyl)-2-cyclohexen-1-yl]-5-pentyl-1,3-benzenediol]
CBD in the receptor phase (skin permeation) [1, 9]: < 278 ng/cm^2 | CBD in the receptor phase (skin permeation), percent of applied dose [1, 9]: less than 0.081% | dermal deposition of CBD ([1]; 48-hour period): 4.54 % of the applied dose | dermis concentration ([1]; 48-hour period): 8,408 ng/cm^2 | dermis concentration per tissue ([1]; 48-hour period): 1,933 ng/g of tissue | dermis concentration, volume equivalent ([1]; 48-hour period): ~1,933 ng/mL | epidermal deposition of CBD ([1]; 48-hour period): 13.17 % of the applied dose | effect on cardiac inflammation [2]: attenuated cardiac inflammation | subjects with circulating levels of CBD ([3]; Day 35 visit, 7 days after final dose): Nine | study drug (CBD) plasma levels ([3]; throughout the study, 225 mg CBD per day): low | mean pre-dose CBD level Day 21 ([4]; Cohort 1: 1 mL QD): 0.545 ng/mL | mean pre-dose CBD level Day 21 ([4]; Cohort 2: 1 mL BID): 0.770 ng/mL | mean CBD trough level Day 15 ([4]; Cohort 2: 1 mL BID): 0.781 ng/mL | mean pre-dose CBD level Day 21 ([4]; Cohort 3: 3 mL QD): 0.715 ng/mL | mean CBD trough level Day 15 ([4]; Cohort 3: 3 mL QD): 0.525 ng/mL | CBD trough level Day 15 of the outlier subject ([4]; Cohort 4, one subject): 5.99 ng/mL | mean pre-dose CBD level Day 21 ([4]; Cohort 4: 3 mL BID): 1.553 ng/mL | mean CBD trough level Day 15 ([4]; Cohort 4: 3 mL BID, all subjects): 2.11 ng/mL | mean CBD trough level Day 15 without outlier subject ([4]; Cohort 4: 3 mL BID, one outlier excluded): 1.16 ng/mL | Cmax Day 21 relative to Day 1 Cmax, mean ([4]; accumulation after 14 days dosing): 1.92 times | effect on airway obstruction [5]: reduced airway obstruction | effects on immortalized human sebocytes [6]: lipostatic, anti-proliferative, and anti-inflammatory effects | effect on human vanilloid receptor type 1 (VR1) [7]: stimulate | effect on anandamide [8]: inhibit
